Reference: publication PMC8178126, “Evaluation of the available cholesterol concentration in the inner leaflet of the plasma membrane of mammalian cells” (Journal of Lipid Research, 2021)

Target: T1, Osh4-Δ1-40 (template of Osh4-Δ1-40(K109A) and eOsh4) (Saccharomyces cerevisiae, UniProt P35844, K109A)
T1 construct: gene KES1; N-terminal lid (aa 1-40) removed; pET-30a, N- and C-terminal His6 tags (printed for eOsh4), E. coli BL21 RIL codon plus
Assay: SPR (BIACORE X-100, L1 chip, immobilised LUVs, equilibrium Req)
Type: binding
Conditions: apparent, 20 mM Tris pH 7.4, 0.16 M NaCl, 23 °C

| SMILES | Kd (protein concentration at half-maximal binding to POPC/POPS/25HC 75:20:5 LUVs (Fig. 3D legend 77:20:5)) [nM] | Kd (protein concentration at half-maximal binding to POPC/POPS/cholesterol 75:20:5 LUVs (Fig. 3D legend 77:20:5)) [nM] |
| --- | --- | --- |
| C[C@H](CCCC(C)(C)O)[C@H]1CC[C@H]2[C@@H]3CC=C4C[C@@H](O)CC[C@]4(C)[C@H]3CC[C@]12C [25-hydroxycholesterol] | 800 ± 130 | – |
| CC(C)CCC[C@@H](C)[C@H]1CC[C@H]2[C@@H]3CC=C4C[C@@H](O)CC[C@]4(C)[C@H]3CC[C@]12C [cholesterol] | – | 100 ± 16 |
